Active and inactive are the calls of the source. How the calls were made is not given here.
Test system: CCRIS mutagenicity, Ames/micronucleus/aberration tests
Assay: CCRIS mutagenicity studies
[1] = Test System: AMES SALMONELLA TYPHIMURIUM, Strain/Indicator: TA98, Metabolic Activation: NONE, Method: PREINCUBATION
[2] = Test System: AMES SALMONELLA TYPHIMURIUM, Strain/Indicator: TA100, Metabolic Activation: NONE, Method: PREINCUBATION
[3] = Test System: AMES SALMONELLA TYPHIMURIUM, Strain/Indicator: TA1535, Metabolic Activation: NONE, Method: PREINCUBATION
[4] = Test System: AMES SALMONELLA TYPHIMURIUM, Strain/Indicator: TA1537, Metabolic Activation: NONE, Method: PREINCUBATION

Q: Which mutagenic call [1] does the source give for CC[C@H](C)[C@H](NC(=O)[C@@H](NC(=O)[C@H](CCC(=O)O)NC(=O)[C@H](CCSC)NC(=O)[C@H](CC(C)C)NC(=O)[C@H](CCCCN)NC(=O)[C@H](CCCNC(=N)N)NC(=O)[C@H](CC(N)=O)NC(=O)[C@H](CO)NC(=O)[C@H](Cc1c[nH]cn1)NC(=O)[C@H](C)NC(=O)[C@H](CCC(N)=O)NC(=O)[C@H](CCC(N)=O)NC(=O)[C@H](C)NC(=O)[C@H](CC(C)C)NC(=O)[C@H](CCC(N)=O)NC(=O)[C@H](CCC(=O)O)NC(=O)[C@H](C)NC(=O)[C@H](CCCNC(=N)N)NC(=O)[C@H](C)NC(=O)[C@H](CCSC)NC(=O)[C@H](CCC(=O)O)NC(=O)[C@H](CC(C)C)NC(=O)[C@@H](NC(=O)[C@H](CCC(=O)O)NC(=O)[C@H](CCCNC(=N)N)NC(=O)[C@H](CC(C)C)NC(=O)[C@H](CC(C)C)NC(=O)[C@H](Cc1c[nH]cn1)NC(=O)[C@H](Cc1ccccc1)NC(=O)[C@@H](NC(=O)[C@H](CC(C)C)NC(=O)[C@H](CC(=O)O)NC(=O)[C@H](CC(C)C)NC(=O)[C@H](CO)NC(=O)[C@@H](NC(=O)[C@@H]1CCCN1C(=O)[C@@H]1CCCN1C(=O)[C@H](CCC(=O)O)NC(=O)[C@H](CCC(=O)O)NC(=O)[C@@H](N)CO)[C@@H](C)CC)[C@@H](C)O)C(C)C)[C@@H](C)CC)C(N)=O here?
A: Its mutagenic call is “inactive; negative”.

Q: And the mutagenic call (Test System: AMES SALMONELLA TYPHIMURIUM, Strain/Indicator: TA98, Metabolic Activation: RAT, LIVER, S-9, PHENOBARBITAL AND 5,6-BENZOFLAVONE, Method: PREINCUBATION)?
A: The mutagenic call was “inactive; negative”.

Q: And the mutagenic call [2]?
A: Its mutagenic call is “inactive; negative”.

Q: And the mutagenic call (Test System: AMES SALMONELLA TYPHIMURIUM, Strain/Indicator: TA100, Metabolic Activation: RAT, LIVER, S-9, PHENOBARBITAL AND 5,6-BENZOFLAVONE, Method: PREINCUBATION)?
A: The mutagenic call was “inactive; negative”.

Q: What about the mutagenic call [3] of the same molecule?
A: Its mutagenic call is “inactive; negative”.

Q: What about the mutagenic call (Test System: AMES SALMONELLA TYPHIMURIUM, Strain/Indicator: TA1535, Metabolic Activation: RAT, LIVER, S-9, PHENOBARBITAL AND 5,6-BENZOFLAVONE, Method: PREINCUBATION) of the same molecule?
A: The mutagenic call was “inactive; negative”.

Q: What about the mutagenic call [4] of the same molecule?
A: Its mutagenic call is “inactive; negative”.

Q: And the mutagenic call (Test System: AMES SALMONELLA TYPHIMURIUM, Strain/Indicator: TA1537, Metabolic Activation: RAT, LIVER, S-9, PHENOBARBITAL AND 5,6-BENZOFLAVONE, Method: PREINCUBATION)?
A: Its mutagenic call is “inactive; negative”.

Q: What about the mutagenic call (Test System: E. COLI, Strain/Indicator: WP2 UVRA, Metabolic Activation: NONE, Method: PREINCUBATION) of the same molecule?
A: The mutagenic call was “inactive; negative”.

Q: What about the mutagenic call (Test System: E. COLI, Strain/Indicator: WP2 UVRA, Metabolic Activation: RAT, LIVER, S-9, PHENOBARBITAL AND 5,6-BENZOFLAVONE, Method: PREINCUBATION) of the same molecule?
A: Its mutagenic call is “inactive; negative”.

Q: What does the source list for O=C(O)C[C@H](O)C[C@H](O)/C=C/c1c(C2CC2)nc2ccccc2c1-c1ccc(F)cc1?
A: mutagenic call [1]: inactive; negative; mutagenic call (Test System: AMES SALMONELLA TYPHIMURIUM, Strain/Indicator: TA98, Metabolic Activation: S-9, Method: PREINCUBATION): inactive; negative; mutagenic call [2]: inactive; negative; mutagenic call (Test System: AMES SALMONELLA TYPHIMURIUM, Strain/Indicator: TA100, Metabolic Activation: S-9, Method: PREINCUBATION): inactive; negative; mutagenic call [3]: inactive; negative; mutagenic call (Test System: AMES SALMONELLA TYPHIMURIUM, Strain/Indicator: TA1535, Metabolic Activation: S-9, Method: PREINCUBATION): inactive; negative; mutagenic call [4]: inactive; negative; mutagenic call (Test System: AMES SALMONELLA TYPHIMURIUM, Strain/Indicator: TA1537, Metabolic Activation: S-9, Method: PREINCUBATION): inactive; negative; mutagenic call (Test System: ESCHERICHIA COLI, Strain/Indicator: WP2 UVR A, Metabolic Activation: NONE, Method: PREINCUBATION): inactive; negative; mutagenic call (Test System: ESCHERICHIA COLI, Strain/Indicator: WP2 UVR A, Metabolic Activation: S-9, Method: PREINCUBATION): inactive; negative; mutagenic call (Test System: UDS RAT HEPATOCYTES IN VIVO, Strain/Indicator: CRJ:CD(SD)/THYMIDINE INCORPORATION, Metabolic Activation: NONE, Method: AUTORADIOGRAPHY): inactive; negative

Q: Which results are given for COC(=O)c1cc2c(c3c1c([N+](=O)[O-])cc1c(OC)cccc13)OCO2?
A: mutagenic call (Test System: AMES SALMONELLA TYPHIMURIUM, Strain/Indicator: TA98, Metabolic Activation: NONE, Method: STANDARD PLATE): active; positive; mutagenic call (Test System: AMES SALMONELLA TYPHIMURIUM, Strain/Indicator: TA100, Metabolic Activation: NONE, Method: STANDARD PLATE): active; positive; mutagenic call (Test System: AMES SALMONELLA TYPHIMURIUM, Strain/Indicator: TA102, Metabolic Activation: NONE, Method: STANDARD PLATE): inactive; negative; mutagenic call (Test System: AMES SALMONELLA TYPHIMURIUM, Strain/Indicator: TA1537, Metabolic Activation: NONE, Method: STANDARD PLATE): active; positive; mutagenic call (Test System: AMES SALMONELLA TYPHIMURIUM, Strain/Indicator: TM677/8-AZAGUANINE, Metabolic Activation: NONE, Method: SUSPENSION/PLATE): inactive; negative

— PubChem BioAssay AID1259407 (Chemical Carcinogenesis Research Information System (CCRIS), 2018)
